Reference: paper PMC9603521, “WYBQ-4: a New Bactericidal Agent against Methicillin-Resistant Staphylococcus aureus” (Microbiology Spectrum, 2022)

Tests used:
[1] = tested on: Gram-negative bacteria; test: MIC by broth microdilution (CLSI); format: cell-based; conditions: compared to that against Staphylococcus
[2] = Acute toxicity test in mice; format: in vivo; conditions: intraperitoneal injection 300 mg/kg
Method: Acute toxicity test in mice. The acute toxicity test in mice was performed according to the requirements of the Chinese Guidelines for Acute Toxicity of Chemicals (H-GPT1-1) ([42]). In brief, each group of 6 female mice (6 to 8 weeks old, weights of 18 to 20 g, BALB/c) was intraperitoneally injected with a single dose of 300, 150, or 75 mg/kg body weight of WYBQ-4. The mice were injected with PBS as a control group. Then, the poisoning symptoms, abnormal behavior, and survival of the mice in each group were observed within 72 h.

With `C#CCO[C@@]1(NC(=O)CSc2cccc(C)c2)C(=O)N2C(C(=O)O)=C(CSc3nnnn3C)CSC21` (some centres unmarked) [WYBQ-4] the antibacterial activity [1] was “weak” and the “acute toxicity, survival of mice” value [2] was “did not affect the survival of the mice”.
